Key:
Experiment in all cases: UV-Vis absorbance of bound flavin, dark recovery after photosaturation
Type in all cases: binding
[1] = molecular target: T1, AsLOV2 (A. sativa phot1 LOV2) (Avena sativa, UniProt O49003, C450V/F494C); conditions: 22 °C; relocated active-site cysteine (C494); covalent photoadduct in the light, <10% bleaching; adduct decay time, not an affinity
T1 construct: gene NPH1-1; LOV2 domain with flanking helices, residues 404-560; His6-Gβ1 tag removed by TEV; GEF left on the amino terminus and G on the carboxy terminus; expressed in E. coli BL21(DE3)
T1 sequence (O49003 entry or part of it C450V/F494C): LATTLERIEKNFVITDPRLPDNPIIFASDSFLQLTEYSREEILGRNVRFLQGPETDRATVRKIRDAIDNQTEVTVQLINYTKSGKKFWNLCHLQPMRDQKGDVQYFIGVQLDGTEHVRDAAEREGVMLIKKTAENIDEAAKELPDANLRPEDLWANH
Source text: (§1) UV-Vis absorbance of bound flavin, dark recovery after photosaturation on AsLOV2 (A. sativa phot1 LOV2)

[2] = molecular target: T2, AsLOV2 (A. sativa phot1 LOV2) (Avena sativa, UniProt O49003, F494C); conditions: 22 °C; bound chromophore; covalent photoadduct with C450 in the light; adduct decay time, not an affinity
T2 construct: gene NPH1-1; LOV2 domain with flanking helices, residues 404-560; His6-Gβ1 tag removed by TEV; GEF left on the amino terminus and G on the carboxy terminus; expressed in E. coli BL21(DE3)
T2 sequence (O49003 entry or part of it F494C): as the sequence (O49003 entry or part of it C450V/F494C) above, with V47C counted along it
Source text: as §1

[3] = molecular target: T3, AsLOV2 (A. sativa phot1 LOV2) (Avena sativa, UniProt O49003, N414A); conditions: 22 °C; bound chromophore; covalent photoadduct with C450 in the light; adduct decay time, not an affinity
T3 construct: gene NPH1-1; LOV2 domain with flanking helices, residues 404-560; His6-Gβ1 tag removed by TEV; GEF left on the amino terminus and G on the carboxy terminus; expressed in E. coli BL21(DE3)
T3 sequence (O49003 entry or part of it N414A): as the sequence (O49003 entry or part of it C450V/F494C) above, with N11A, V47C, C91F counted along it
Source text: as §1

[4] = molecular target: T4, AsLOV2 (A. sativa phot1 LOV2) (Avena sativa, UniProt O49003, N414D); conditions: 22 °C; bound chromophore; covalent photoadduct with C450 in the light; adduct decay time, not an affinity
T4 construct: gene NPH1-1; LOV2 domain with flanking helices, residues 404-560; His6-Gβ1 tag removed by TEV; GEF left on the amino terminus and G on the carboxy terminus; expressed in E. coli BL21(DE3)
T4 sequence (O49003 entry or part of it N414D): as the sequence (O49003 entry or part of it C450V/F494C) above, with N11D, V47C, C91F counted along it
Source text: as §1

[5] = molecular target: T5, AsLOV2 (A. sativa phot1 LOV2) (Avena sativa, UniProt O49003, N414G); conditions: 22 °C; bound chromophore; covalent photoadduct with C450 in the light; adduct decay time, not an affinity
T5 construct: gene NPH1-1; LOV2 domain with flanking helices, residues 404-560; His6-Gβ1 tag removed by TEV; GEF left on the amino terminus and G on the carboxy terminus; expressed in E. coli BL21(DE3)
T5 sequence (O49003 entry or part of it N414G): as the sequence (O49003 entry or part of it C450V/F494C) above, with N11G, V47C, C91F counted along it
Source text: as §1

[6] = molecular target: T6, AsLOV2 (A. sativa phot1 LOV2) (Avena sativa, UniProt O49003, N414L); conditions: 22 °C; bound chromophore; covalent photoadduct with C450 in the light; adduct decay time, not an affinity
T6 construct: gene NPH1-1; LOV2 domain with flanking helices, residues 404-560; His6-Gβ1 tag removed by TEV; GEF left on the amino terminus and G on the carboxy terminus; expressed in E. coli BL21(DE3)
T6 sequence (O49003 entry or part of it N414L): as the sequence (O49003 entry or part of it C450V/F494C) above, with N11L, V47C, C91F counted along it
Source text: as §1

[7] = molecular target: T7, AsLOV2 (A. sativa phot1 LOV2) (Avena sativa, UniProt O49003, N414Q); conditions: 22 °C; bound chromophore; covalent photoadduct with C450 in the light; adduct decay time, not an affinity
T7 construct: gene NPH1-1; LOV2 domain with flanking helices, residues 404-560; His6-Gβ1 tag removed by TEV; GEF left on the amino terminus and G on the carboxy terminus; expressed in E. coli BL21(DE3)
T7 sequence (O49003 entry or part of it N414Q): as the sequence (O49003 entry or part of it C450V/F494C) above, with N11Q, V47C, C91F counted along it
Source text: as §1

[8] = molecular target: T8, AsLOV2 (A. sativa phot1 LOV2) (Avena sativa, UniProt O49003, Q513D); conditions: 22 °C; bound chromophore; covalent photoadduct with C450 in the light; adduct decay time, not an affinity
T8 construct: gene NPH1-1; LOV2 domain with flanking helices, residues 404-560; His6-Gβ1 tag removed by TEV; GEF left on the amino terminus and G on the carboxy terminus; expressed in E. coli BL21(DE3)
T8 sequence (O49003 entry or part of it Q513D): as the sequence (O49003 entry or part of it C450V/F494C) above, with V47C, C91F, Q110D counted along it
Source text: as §1

[9] = molecular target: T9, AsLOV2 (A. sativa phot1 LOV2) (Avena sativa, UniProt O49003, Q513L); conditions: 22 °C; bound chromophore; covalent photoadduct with C450 in the light; adduct decay time, not an affinity
T9 construct: gene NPH1-1; LOV2 domain with flanking helices, residues 404-560; His6-Gβ1 tag removed by TEV; GEF left on the amino terminus and G on the carboxy terminus; expressed in E. coli BL21(DE3)
T9 sequence (O49003 entry or part of it Q513L): as the sequence (O49003 entry or part of it C450V/F494C) above, with V47C, C91F, Q110L counted along it
Source text: as §1

[10] = molecular target: T10, AsLOV2 (A. sativa phot1 LOV2) (Avena sativa, UniProt O49003); conditions: 22 °C; bound chromophore; covalent cysteinyl-C4a photoadduct with C450 in the light, noncovalent in the dark; adduct decay time, not an affinity; Table 1 gives 80 s from earlier work
T10 construct: gene NPH1-1; LOV2 domain with flanking helices, residues 404-560; His6-Gβ1 tag removed by TEV; GEF left on the amino terminus and G on the carboxy terminus; expressed in E. coli BL21(DE3)
T10 sequence (O49003 entry or part of it): as the sequence (O49003 entry or part of it C450V/F494C) above, with V47C, C91F counted along it

## Cc1cc2nc3c(=O)[nH]c(=O)nc-3n(C[C@H](O)[C@H](O)[C@H](O)COP(=O)(O)O)c2cc1C [FMN, flavin mononucleotide]
[1]
  τFMN: 69 s
[2]
  τFMN: 282 s
[3]
  τFMN: 1427 s
[4]
  τFMN: 69 s
[5]
  τFMN: 615 s
[6]
  τFMN: 1847 s
[7]
  τFMN: 280 s
[8]
  τFMN: 5 s
[9]
  τFMN: 1793 s
[10]
  τFMN: 81 ± 2 s
